Results on six compounds are retold here after patent publication US6756359B2, “C12 modified erythromycin macrolides and ketolides having antibacterial activity” (Chiron Corporation, priority 2001, dated 2004).

≈ marks a conversion by molar mass, not a printed value.

What all share (assay): Antibacterial activity in vitro, MIC by broth microdilution
For orientation: In broth dilution the organism is exposed to a series of concentrations in liquid medium.

Test [1] has as its system H. influenzae Hain_49247. In kind it is cell-based, Haemophilus influenzae. As to conditions: Table 5, Strain ID M: H. influenzae Hain_49247; unit assumed. The procedure: (§1) Representative compounds of the present invention were assayed in vitro for antibacterial activity against the bacterial isolates listed in Table 1 as follows:
(§2) The bacterial isolates listed in Table 1 were cultivated from −70° C. frozen stocks by two consecutive overnight passages (P1, P2) at 35° C. on 5% blood agar (Remel, Lenexa, Kans.). Chocolate agar (Remel) is used for Haemophilus influenzae. H. influenzae and Streptococcus pneumoniae are incubated in 5-10% CO2.
(§3) To determine the amount of solvent to be used to give the desired final concentration, the formula “weight obtained in mg/final concentration in mg/mL” will be used. It will give the amount of solvent in mL needed to be added to give the desired concentration. For example, if 2.5 mg/mL is the desired concentration and the weight of compound is 13.7 mg, then the amount of solvent to be added is 3.94 mL (13.7 mg/2.5 mg/mL=3.94 mLs). Methanol is used as the solvent to dissolve the test compounds. Further dilution of stock is done in sterile, deioinzed water. Drug stocks are kept frozen at −70° C., protected from light.
(§4) MICs are determined by the broth microdilution method in accordance with the NCCLS guidelines. In brief, organism suspensions are adjusted to a 0.5 McFarland standard to yield a final inoculum between 3×10^5 and 7×10^5 CFU/mL. Drug dilutions and inocula are made in sterile, cation adjusted Mueller-Hinton Broth (CAMHB) (Remel) for all but S. pneumoniae [CAMHB with 2-5% lysed horse blood (Remel)] and H. influenzae [Haemophilus Test Medium (Remel)]. An inoculum volume of 100 μl is added to wells containing 100 μl of broth with 2-fold serial dilutions of drug. All inoculated microdilution trays are incubated in ambient air at 35° C. for 18-24 hours, except for S. pneumoniae, and H. influenzae (both at 5-10% CO2).
(§5) Following appropriate incubation, the MIC is determined and the MIC is defined as the lowest concentration of the drug that prevented visible growth.

Test [2] concerns S. aureus Stau_29213. In kind it is cell-based. Conditions: Table 5, Strain ID A: S. aureus Stau_29213; unit assumed. The procedure:
as §1, §2, §3, §4, §5

Test [3] has as its system E. faecalis Enfa_29212. In kind it is cell-based. Conditions: Table 5, Strain ID D: E. faecalis Enfa_29212; unit assumed. The procedure:
as §1, §2, §3, §4, §5

Test [4] deals with S. epidermidis Step_14990. In kind it is cell-based. As to conditions: Table 5, Strain ID B: S. epidermidis Step_14990; unit assumed. As for the experimental part: as §1, §2, §3, §4, §5
Test [5] concerns S. pyogenes Stpy_8668. In kind it is cell-based. As to conditions: Table 5, Strain ID E: S. pyogenes Stpy_8668. The procedure:
as §1, §2, §3, §4, §5

Test [6] relates to S. epidermidis Step_f50654 Pen S. In kind it is cell-based. Conditions: Table 5, Strain ID C: S. epidermidis Step_f50654; unit assumed. The procedure:
as §1, §2, §3, §4, §5

Test [7] concerns S. pneumoniae Stpn_297-749 Pen R. In kind it is cell-based, Streptococcus pneumoniae. As to conditions: Table 5, Strain ID G: S. pneumoniae Stpn_297-749. The procedure: as §1, §2, §3, §4, §5
Test [8] has as its system S. pneumoniae Stpn_Mef 5654. In kind it is cell-based, Streptococcus pneumoniae. Conditions: Table 5, Strain ID K: S. pneumoniae Stpn_Mef 5654; unit assumed. The procedure: as §1, §2, §3, §4, §5
Test [9] deals with S. pneumoniae Stpn_280-962 Pen S. In kind it is cell-based, Streptococcus pneumoniae. As to conditions: Table 5, Strain ID H: S. pneumoniae Stpn_280-962. As for the experimental part:
as §1, §2, §3, §4, §5

The subject of test [10] is S. pneumoniae Stpn_Erm S 4297. In kind it is cell-based, Streptococcus pneumoniae. Conditions: Table 5, Strain ID J: S. pneumoniae Stpn_Erm S 4297. The procedure:
as §1, §2, §3, §4, §5

In test [11] the test system is S. pneumoniae Stpn_49619. In kind it is cell-based, Streptococcus pneumoniae. As to conditions: Table 5, Strain ID F: S. pneumoniae Stpn_49619. The procedure: as §1, §2, §3, §4, §5
Test [12] has as its system S. pneumoniae Stpn_Mef S 3427. In kind it is cell-based, Streptococcus pneumoniae. As to conditions: Table 5, Strain ID L: S. pneumoniae Stpn_Mef S 3427. The procedure:
as §1, §2, §3, §4, §5

Test [13] concerns S. pneumoniae Stpn_Erm 6849. In kind it is cell-based, Streptococcus pneumoniae. As to conditions: Table 5, Strain ID I: S. pneumoniae Stpn_Erm 6849; unit assumed. As for the experimental part:
as §1, §2, §3, §4, §5

Regarding `C=C[C@]12OC(=O)N(CCCC(C)(C)n3cnc(-c4cccnc4)c3)[C@@H]1[C@@H](C)C(=O)[C@H](C)C[C@](C)(OC)[C@H](OC1O[C@H](C)C[C@H](N(C)C)[C@H]1O)[C@@H](C)C(=O)[C@@H](C)C(=O)O[C@@H]2CC` (stereo partly drawn) [Example 50, (3aS,4R,7R,9R,10R,11S,13R,15R,15aR)-4-ethyl-11-methoxy-7,9,11,13,15-pentamethyl-1-[4-methyl-4-(4-pyridin-3-yl-1H-imidazol-1-yl)pentyl]-2,6,8,14-tetraoxo-3a-vinyltetradecahydro-2H-oxacyclotetradecino[4,3-d][1,3]oxazol-10-yl 3,4,6-trideoxy-3-(dimethylamino)-D-xylo-hexopyranoside], the MIC in test [1] was 6.25 µg/mL (≈ 7.33 µM); in [2], 0.4 µg/mL (≈ 0.469 µM); in test [3], 0.2 µg/mL (≈ 0.235 µM); in test [4] it was 0.4 µg/mL (≈ 0.469 µM); in [5], “≦0.05”; in test [6], 0.2 µg/mL (≈ 0.235 µM). The MIC result in test [7] was “≦0.05”; in [8], 0.4 µg/mL (≈ 0.469 µM); in test [9] it was “≦0.05”; in test [10], “≦0.05”; in test [11], “≦0.05”; in test [12] (unit assumed), 0.1 µg/mL (≈ 0.117 µM). In test [13], this compound displayed an MIC of 0.1 µg/mL (≈ 0.117 µM).
In the case of `CC[C@H]1OC(=O)[C@@](C)(F)C(=O)[C@H](C)[C@@H](OC2O[C@H](C)C[C@H](N(C)C)[C@H]2O)[C@@](C)(OC)C[C@@H](C)C(=O)[C@H](C)[C@H]2N(CCCCn3cnc(-c4ccc(C)nc4)c3)C(=O)O[C@]12CC` (stereo partly drawn) [Example 30, (3aS,4R,7S,9R,10R,11S,13R,15R,15aR)-3a,4-diethyl-7-fluoro-11-methoxy-7,9,11,13,15-pentamethyl-1-{4-[4-(6-methylpyridin-3-yl)-1H-imidazol-1-yl]butyl}-2,6,8,14-tetraoxotetradecahydro-2H-oxacyclotetradecino[4,3-d][1,3]oxazol-10-yl 3,4,6-trideoxy-3-(dimethylamino)-D-xylo-hexopyranoside], the MIC was 6.25 µg/mL (≈ 7.28 µM) in test [1]; 0.2 µg/mL (≈ 0.233 µM) in test [2]; 0.2 µg/mL (≈ 0.233 µM) in test [3]; 0.2 µg/mL (≈ 0.233 µM) in test [4]; “≦0.05” in test [5]; 0.4 µg/mL (≈ 0.466 µM) in test [6]. The MIC entry in test [7] is “≦0.05”; in test [8] it was 0.78 µg/mL (≈ 0.909 µM); in test [9], “≦0.05”; in test [10] (unit assumed), 0.1 µg/mL (≈ 0.117 µM); in test [11] it was “≦0.05”; in test [12] (unit assumed), 0.1 µg/mL (≈ 0.117 µM). The compound further displayed an MIC in test [13] of 0.4 µg/mL (≈ 0.466 µM).
On to `CC[C@H]1OC(=O)[C@H](C)C(=O)[C@H](C)[C@@H](OC2O[C@H](C)C[C@H](N(C)C)[C@H]2O)[C@@](C)(OC)C[C@@H](C)C(=O)[C@H](C)[C@H]2N(CCCCn3cnc(-c4cncnc4)c3)C(=O)O[C@]12CC` (stereo partly drawn) [Example 25, (3aS,4R,7R,9R,10R,11S,13R,15R,15aR)-3a,4-diethyl-11-methoxy-7,9,11,13,15-pentamethyl-2,6,8,14-tetraoxo-1-[4-(4-pyrimidin-5-yl-1H-imidazol-1-yl)butyl]tetradecahydro-2H-oxacyclotetradecino[4,3-d][1,3]oxazol-10-yl 3,4,6-trideoxy-3-(dimethylamino)-D-xylo-hexopyranoside], for which the MIC is 3.13 µg/mL (≈ 3.78 µM) in test [1]; 0.4 µg/mL (≈ 0.484 µM) in test [2]; 0.1 µg/mL (≈ 0.121 µM) in test [3]; 0.2 µg/mL (≈ 0.242 µM) in test [4]; “≦0.05” in [5]; 0.2 µg/mL (≈ 0.242 µM) in test [6]. Also, the MIC result is “≦0.05” in test [7]; 0.4 µg/mL (≈ 0.484 µM) in test [8]; “≦0.05” in [9]; 0.1 µg/mL (≈ 0.121 µM) in [10] (unit assumed); “≦0.05” in [11]; 0.1 µg/mL (≈ 0.121 µM) in test [12] (unit assumed). The compound further had an MIC in test [13] of 0.1 µg/mL (≈ 0.121 µM).
Regarding `CC[C@H]1OC(=O)[C@@](C)(F)C(=O)[C@H](C)[C@@H](OC2O[C@H](C)C[C@H](N(C)C)[C@H]2O)[C@@](C)(OC)C[C@@H](C)C(=O)[C@H](C)[C@H]2N(CCCCc3ccc4ccccc4n3)C(=O)O[C@]12CC` (stereo partly drawn) [Example 19, (3aS,4R,7S,9R,10R,11S,13R,15R,15aR)-3a,4-diethyl-7-fluoro-11-methoxy-7,9,11,13,15-pentamethyl-2,6,8,14-tetraoxo-1-(4-quinolin-2-ylbutyl)tetradecahydro-2H-oxacyclotetradecino[4,3-d][1,3]oxazol-10-yl 3,4,6-trideoxy-3-(dimethylamino)-D-xylo-hexopyranoside], the MIC in test [1] stood at 6.25 µg/mL (≈ 7.55 µM); in test [2], 0.4 µg/mL (≈ 0.483 µM); in test [3] it was 0.4 µg/mL (≈ 0.483 µM); in test [4], 0.4 µg/mL (≈ 0.483 µM); in test [5] (unit assumed), 0.1 µg/mL (≈ 0.121 µM); in test [6], 0.4 µg/mL (≈ 0.483 µM). Besides, the MIC entry in test [7] was “≦0.05”; in test [8] it was 0.4 µg/mL (≈ 0.483 µM); in [9] it was “≦0.05”; in [10] (unit assumed), 0.2 µg/mL (≈ 0.242 µM); in test [11], “≦0.05”; in test [12] (unit assumed), 0.1 µg/mL (≈ 0.121 µM). For the same compound, the MIC in [13] is 0.78 µg/mL (≈ 0.942 µM).
Turning to `CC[C@H]1OC(=O)[C@H](C)C(=O)[C@H](C)[C@@H](OC2O[C@H](C)C[C@H](N(C)C)[C@H]2O)[C@@](C)(OC)C[C@@H](C)C(=O)[C@H](C)[C@H]2N(CCCC(C)(C)n3cnc4ncccc43)C(=O)O[C@]12CC` (stereo partly drawn) [Example 37, (3aS,4R,7R,9R,10R,11S,13R,15R,15aR)-3a,4-diethyl-1-[4-(1H-imidazo[4,5-b]pyridin-1-yl)-4-methylpentyl]-11-methoxy-7,9,11,13,15-pentamethyl-2,6,8,14-tetraoxotetradecahydro-2H-oxacyclotetradecino[4,3-d][1,3]oxazol-10-yl 3,4,6-trideoxy-3-(dimethylamino)-D-xylo-hexopyranoside], the MIC in [1] is 6.25 µg/mL (≈ 7.55 µM); in test [2], 0.4 µg/mL (≈ 0.483 µM); in test [3], 0.1 µg/mL (≈ 0.121 µM); in test [4] it was 0.2 µg/mL (≈ 0.242 µM); in test [5], “≦0.05”; in test [6] it was 0.2 µg/mL (≈ 0.242 µM). Also, the MIC entry is “≦0.05” in test [7]; 1.56 µg/mL (≈ 1.88 µM) in test [8]; “≦0.05” in test [9]; 0.1 µg/mL (≈ 0.121 µM) in test [10] (unit assumed); “≦0.05” in test [11]; 0.2 µg/mL (≈ 0.242 µM) in [12] (unit assumed). The MIC in test [13] worked out at 0.4 µg/mL (≈ 0.483 µM).
With `CC[C@H]1OC(=O)[C@H](C)C(=O)[C@H](C)[C@@H](OC2O[C@H](C)C[C@H](N(C)C)[C@H]2O)[C@@](C)(OC)C[C@@H](C)C(=O)[C@H](C)[C@H]2N(CCCCc3ccnc4ccccc34)C(=O)O[C@]12CC` (stereo partly drawn) [Example 15, (3aS,4R,7R,9R,10R,11S,13R,15R,15aR)-3a,4-diethyl-11-methoxy-7,9,11,13,15-pentamethyl-2,6,8,14-tetraoxo-1-(4-quinolin-4-ylbutyl)tetradecahydro-2H-oxacyclotetradecino[4,3-d][1,3]oxazol-10-yl 3,4,6-trideoxy-3-(dimethylamino)-D-xylo-hexopyranoside], the MIC in [1] is 3.13 µg/mL (≈ 3.86 µM); in test [2], 0.4 µg/mL (≈ 0.494 µM); in test [3] it was 0.1 µg/mL (≈ 0.123 µM); in test [4], 0.2 µg/mL (≈ 0.247 µM); in test [5], “≦0.05”; in [6] it was 0.4 µg/mL (≈ 0.494 µM). In addition, the MIC entry in test [7] was “≦0.05”; in test [8], 0.2 µg/mL (≈ 0.247 µM); in test [9] it was “≦0.05”; in [10] (unit assumed), 0.1 µg/mL (≈ 0.123 µM); in [11], “≦0.05”; in test [12] it was “≦0.05”. Besides, the MIC in [13] amounted to 1.56 µg/mL (≈ 1.93 µM).
